Experimental data from US4231928A, “Antibacterial agents” (priority 1979, dated 1980).
Like-named read-outs stand apart in the source and are kept apart here.

Legend:
[1] = system: P. mirabilis; assay: Serial twofold agar dilution (Mueller-Hinton agar), P. mirabilis; format: cell-based; conditions: Proteus mirabilis, P. mirabilis A9900, Mueller-Hinton agar, read-out: MIC
Description: (§1) The Minimum Inhibitory Concentrations (MIC) for sodium 6-[D-(-)-α-phenyl-α-(7-hydroxy-4-oxo-4H-pyrimido[1,2-b]pyridazin-3-ylcarboxamido)acetamido]penicillanate (BB-P598) and sulbenicillin were determined by the serial twofold agar dilution method using Steers' apparatus on Mueller-Hinton agar plates against 31 test organisms for the primary screening (Table 1) and also against 61 strains of Pseudomonas aeruginosa for the secondary evaluation (Table 2).
(§2) Minimum Inhibitory Concentrations (MIC) for sodium 6-[D-(-)-α-phenyl-α-(7-hydroxy-4-oxo-4H-pyrimido[1,2-b]pyridazin-3-ylcarboxamido)acetamido]pencillanate (BB-P598), sodium 6-[D-(-)-α-(4-hydroxyphenyl)-α-(7-hydroxy-4-oxo-4H-pyrimido[1,2-b]pyridazin-3-ylcarboxamido)acetamido]-penicillanate (BB-P642) and carbenicillin were determined by the serial twofold agar dilution method using Steers' apparatus on Mueller-Hinton agar plates against 31 tests organisms (Table 8) and also against 61 strains of Pseudomonas aeruginosa (Table 9). In terms of mean % relative activity compared with carbenicillin, compounds BB-B598 and BB-P642 were 856% and 1319% as active as carbenicillin against the 61 Pseudomonas strains of Table 9.

[2] = system: Pseudomonas sp.; assay: Serial twofold agar dilution (Mueller-Hinton agar), Pseudomonas sp.; format: cell-based
Description: as §1, §2

[3] = system: E. cloacae; assay: Serial twofold agar dilution (Mueller-Hinton agar), E. cloacae; format: cell-based; conditions: Enterobacter cloacae
Description: as §1, §2

[4] = system: Klebsiella sp.; assay: Serial twofold agar dilution (Mueller-Hinton agar), Klebsiella sp.; format: cell-based; conditions: Klebsiella sp. A20452, Mueller-Hinton agar
Description: as §1, §2

[5] = system: S. marcescens; assay: Serial twofold agar dilution (Mueller-Hinton agar), S. marcescens; format: cell-based; conditions: Serratia marcescens
Description: as §1, §2

[6] = system: S. aureus; assay: Serial twofold agar dilution (Mueller-Hinton agar), S. aureus; format: cell-based; conditions: Staphylococcus aureus
Description: as §1, §2

[7] = system: S. enteritidis; assay: Serial twofold agar dilution (Mueller-Hinton agar), S. enteritidis; format: cell-based
Description: as §1, §2

[8] = Mouse blood levels after subcutaneous administration; conditions: in vivo, sc, 20 mg/kg
Description: Mouse blood levels of BB-[…] and BB-[…] were determined by subcutaneous administration of 20 mg/kg of the penicillin to groups of three mice. Blood samples collected from orbital sinuses were assayed by the paper disk agar-diffusion method on Sarcina lutea PC1 1001 plates.

[9] = system: K. pneumoniae; assay: Serial twofold agar dilution (Mueller-Hinton agar), K. pneumoniae; format: cell-based
Description: as §1, §2

[10] = system: Pseudomonas aeruginosa; assay: Serial twofold agar dilution (Mueller-Hinton agar), P. aeruginosa; format: cell-based; conditions: for MIC: Pseudomonas aeruginosa
Description: as §1, §2

## CC1(C)S[C@@H]2[C@H](NC(=O)[C@H](NC(=O)c3cnc4ccc(O)nn4c3=O)c3ccccc3)C(=O)N2[C@H]1C(=O)O [BB-P598, sodium 6-[D-(-)-α-phenyl-α-(7-hydroxy-4-oxo-4H-pyrimido[1,2-b]pyridazin-3-ylcarboxamido)acetamido]penicillanate]
[1]; Table 1
  MIC: 0.2 mg/L
[1]; Table 8
  MIC: 6.3 mg/L
[2]; Pseudomonas sp. A20358, Table 1, read-out: MIC
  MIC: 1.6 mg/L
[2]; Pseudomonas sp. A20358, Table 8
  MIC: 1.6 mg/L
[3]; E. cloacae A9656, Table 1
  MIC: 25 mg/L
[3]; E. cloacae A9656, Table 8
  MIC: 25 mg/L
[3]; E. cloacae A9657, Table 1
  MIC: 50 mg/L
[3]; E. cloacae A9657, Table 8
  MIC: 100 mg/L
[3]; E. cloacae A9659, Table 1
  MIC: 25 mg/L
[3]; E. cloacae A9659, Table 8
  MIC: 25 mg/L
[4]; Table 1, read-out: MIC
  MIC: 25 mg/L
[4]; Table 8, read-out: MIC
  MIC: 12.5 mg/L
[5]; S. marcescens A20019, Table 1
  MIC: 100 mg/L
[5]; S. marcescens A20019, Table 8
  MIC: 50 mg/L
[6]; S. aureus A15097, Table 8, read-out: MIC
  MIC: > 100 mg/L
[6]; S. aureus A20239, Table 8, read-out: MIC
  MIC: 25 mg/L
[6]; S. aureus A20240, Table 8, read-out: MIC
  MIC: 12.5 mg/L
[6]; S. aureus A20701, Table 8, read-out: MIC
  MIC: > 100 mg/L
[6]; S. aureus BX-1633 A9606, Table 1, read-out: MIC
  MIC: 6.3 mg/L
[6]; S. aureus BX-1633 A9606, Table 8, read-out: MIC
  MIC: 50 mg/L
[6]; S. aureus BX-1633 A15097, Table 1, read-out: MIC
  MIC: 100 mg/L
[6]; S. aureus BX-1633 A20240, Table 1, read-out: MIC
  MIC: 6.3 mg/L
[6]; S. aureus BX-1633 A20701, Table 1, read-out: MIC
  MIC: > 100 mg/L
[6]; S. aureus Smith A9537, Table 1, read-out: MIC
  MIC: 1.6 mg/L
[6]; S. aureus Smith A9537, Table 8, read-out: MIC
  MIC: 1.6 mg/L
[6]; S. aureus Smith A20239, Table 1
  MIC: 25 mg/L
[7]; S. enteritidis A9531, Table 1
  MIC: 6.3 mg/L
[7]; Salmonella enterica, S. enteritidis A9531, Table 8, read-out: MIC
  MIC: 6.3 mg/L
[8]
  concentration at 0.25 h: 3.57 µg/mL
  concentration at 0.5 h: 0.9 µg/mL
[9]; K. pneumoniae A9977, Table 1
  MIC: 12.5 mg/L
[9]; Klebsiella pneumoniae, K. pneumoniae A9977, Table 8, read-out: MIC
  MIC: 12.5 mg/L
[10]; 61 strains of P. aeruginosa, Table 2
  Mean % relative activity (sulbenicillin = 100%): 756%
[10]; 61 strains of P. aeruginosa, Table 9
  Mean % relative activity compared with carbenicillin: 856%
[10]; 61 strains of P. aeruginosa, Table 2, read-out: Geometric mean of MIC
  MIC: 4.2 mg/L
[10]; 61 strains of P. aeruginosa, Table 9, read-out: Geometric mean of MIC
  MIC: 3.5 mg/L
[10]; ATCC19660, Pa-14 ATCC 19660 A20325, Mueller-Hinton agar, Table 9, read-out: MIC
  MIC: 6.3 mg/L
[10]; GN315, Pa-27 GN315 A21294, Mueller-Hinton agar, Table 2, read-out: MIC
  MIC: 3.1 mg/L
[10]; GN315, Pa-27 GN315 A21294, Mueller-Hinton agar, Table 9, read-out: MIC
  MIC: 1.6 mg/L
[10]; GN4925, Pa-45 GN4925, Mueller-Hinton agar, Table 2, read-out: MIC
  MIC: 6.3 mg/L
[10]; GN4925, Pa-45 GN 4925, Mueller-Hinton agar, Table 9, read-out: MIC
  MIC: 6.3 mg/L
[10]; P. aeruginosa A9843, Mueller-Hinton agar, Table 1, read-out: MIC
  MIC: 3.1 mg/L
[10]; P. aeruginosa A9843, Mueller-Hinton agar, Table 8, read-out: MIC
  MIC: 3.1 mg/L
[10]; P. aeruginosa A9930, Mueller-Hinton agar, Table 1, read-out: MIC
  MIC: 1.6 mg/L
[10]; P. aeruginosa A9930, Mueller-Hinton agar, Table 8, read-out: MIC
  MIC: 1.6 mg/L
[10]; P. aeruginosa A15150, Mueller-Hinton agar, Table 1, read-out: MIC
  MIC: 0.8 mg/L
[10]; P. aeruginosa A15150, Mueller-Hinton agar, Table 8, read-out: MIC
  MIC: 1.6 mg/L
[10]; P. aeruginosa A20229, Mueller-Hinton agar, Table 1, read-out: MIC
  MIC: 1.6 mg/L
[10]; P. aeruginosa A20717, Mueller-Hinton agar, Table 1, read-out: MIC
  MIC: 6.3 mg/L
[10]; P. aeruginosa A20717, Mueller-Hinton agar, Table 8, read-out: MIC
  MIC: 6.3 mg/L
[10]; Pa-1 D15, Mueller-Hinton agar, Table 2, read-out: MIC
  MIC: 6.3 mg/L
[10]; Pa-1 D15, Mueller-Hinton agar, Table 9, read-out: MIC
  MIC: 6.3 mg/L
[10]; Pa-2 V.A A9923, Mueller-Hinton agar, Table 9, read-out: MIC
  MIC: 3.1 mg/L
[10]; Pa-2 VA A9923, Mueller-Hinton agar, Table 2, read-out: MIC
  MIC: 3.1 mg/L
[10]; Pa-3 1449 V.A A9930, Mueller-Hinton agar, Table 9, read-out: MIC
  MIC: 3.1 mg/L
[10]; Pa-3 1449VA A9930, Mueller-Hinton agar, Table 2, read-out: MIC
  MIC: 1.6 mg/L
[10]; Pa-4 H9, D113 A21295, Mueller-Hinton agar, Table 9, read-out: MIC
  MIC: 3.1 mg/L
[10]; Pa-4 H9 D113 A21295, Mueller-Hinton agar, Table 2, read-out: MIC
  MIC: 6.3 mg/L
[10]; Pa-5 M4865, K.C A15150, Mueller-Hinton agar, Table 9, read-out: MIC
  MIC: 1.6 mg/L
[10]; Pa-5 M4865KC A15150, Mueller-Hinton agar, Table 2, read-out: MIC
  MIC: 3.1 mg/L
[10]; Pa-6 No. 5 A15194, Mueller-Hinton agar, Table 2, read-out: MIC
  MIC: 25 mg/L
[10]; Pa-6 No. 5 Levitan A15194, Mueller-Hinton agar, Table 9, read-out: MIC
  MIC: 12.5 mg/L
[10]; Pa-7 A9843, Mueller-Hinton agar, Table 2, read-out: MIC
  MIC: 6.3 mg/L
[10]; Pa-10 A20479, Mueller-Hinton agar, Table 2, read-out: MIC
  MIC: > 100 mg/L
[10]; Pa-10 A21479, Mueller-Hinton agar, Table 9, read-out: MIC
  MIC: 100 mg/L
[10]; Pa-11 A20616, Mueller-Hinton agar, Table 2, read-out: MIC
  MIC: 3.1 mg/L
[10]; Pa-11 A20616, Mueller-Hinton agar, Table 9, read-out: MIC
  MIC: 6.3 mg/L
[10]; Pa-12 A20653, Mueller-Hinton agar, Table 2, read-out: MIC
  MIC: 6.3 mg/L
[10]; Pa-12 A20653, Mueller-Hinton agar, Table 9, read-out: MIC
  MIC: 6.3 mg/L
[10]; Pa-14 A20325, Mueller-Hinton agar, Table 2, read-out: MIC
  MIC: 3.1 mg/L
[10]; Pa-15 A20717, Mueller-Hinton agar, Table 2, read-out: MIC
  MIC: 6.3 mg/L
[10]; Pa-15 A20717, Mueller-Hinton agar, Table 9, read-out: MIC
  MIC: 12.5 mg/L
[10]; Pa-16 #130 A20718, Mueller-Hinton agar, Table 2, read-out: MIC
  MIC: 0.8 mg/L
[10]; Pa-16 #130 A20718, Mueller-Hinton agar, Table 9, read-out: MIC
  MIC: 0.4 mg/L
[10]; Pa-17 H6, D114, Mueller-Hinton agar, Table 9, read-out: MIC
  MIC: 1.6 mg/L
[10]; Pa-17 H6 D114, Mueller-Hinton agar, Table 2, read-out: MIC
  MIC: 3.1 mg/L
[10]; Pa-18 H8, D121, Mueller-Hinton agar, Table 9, read-out: MIC
  MIC: 1.6 mg/L
[10]; Pa-18 H8 D121, Mueller-Hinton agar, Table 2, read-out: MIC
  MIC: 3.1 mg/L
[10]; Pa-19 A20229, Mueller-Hinton agar, Table 2, read-out: MIC
  MIC: 1.6 mg/L
[10]; Pa-19 A20229, Mueller-Hinton agar, Table 9, read-out: MIC
  MIC: 0.8 mg/L
[10]; Pa-20 A20325, Mueller-Hinton agar, Table 2, read-out: MIC
  MIC: 6.3 mg/L
[10]; Pa-20 A20325, Mueller-Hinton agar, Table 9, read-out: MIC
  MIC: 3.1 mg/L
[10]; Pa-21 A20601, Mueller-Hinton agar, Table 2, read-out: MIC
  MIC: 3.1 mg/L
[10]; Pa-21 A20601, Mueller-Hinton agar, Table 9, read-out: MIC
  MIC: 3.1 mg/L
[10]; Pa-23 A20741, Mueller-Hinton agar, Table 2, read-out: MIC
  MIC: 6.3 mg/L
[10]; Pa-23 A20741, Mueller-Hinton agar, Table 9, read-out: MIC
  MIC: 3.1 mg/L
[10]; Pa-24 A20896, Mueller-Hinton agar, Table 2, read-out: MIC
  MIC: 25 mg/L
[10]; Pa-24 A20896, Mueller-Hinton agar, Table 9, read-out: MIC
  MIC: 100 mg/L
[10]; Pa-25 A20897, Mueller-Hinton agar, Table 2, read-out: MIC
  MIC: 1.6 mg/L
[10]; Pa-25 A20897, Mueller-Hinton agar, Table 9, read-out: MIC
  MIC: 1.6 mg/L
[10]; Pa-26 PS32, Mueller-Hinton agar, Table 9, read-out: MIC
  MIC: 25 mg/L
[10]; Pa-26 Ps32, Mueller-Hinton agar, Table 2, read-out: MIC
  MIC: 1.6 mg/L
